Assay results reported in patent US20030215462A1, “Use of UGT inhibitors to increase bioavailability” (priority 2001, published 2003).
Where “and” joins values, the source holds several entries; their conditions need not be identical. Identical values can stand only once.

Legend:
[1] = test system: UGT enzymes of pooled human jejunum microsomes; test: Inhibition of raloxifene glucuronidation (G1, G2) in pooled human jejunum microsomes; type: biochemical; conditions: jejunum HJ61; inhibitor 10 μM
Experimental: (§1) Compounds were eluted using a binary solvent gradient system. […] Solvent B was methanol. […] Detection was at 280 nm.
Standardized incubations utilized […] microsomal protein, 1 mM UDPGA and a 30 min incubation time.

[2] = biological target: T1, UGT enzymes of human liver microsomes; test: Inhibition of 7-HFC glucuronidation in human liver microsomes; type: biochemical; conditions: for % of control metabolism (SD, n = 3), 7-HFC glucuronidation: human liver microsomes 100 μg/ml
T1 construct: percentage of control metabolism, 7-HFC glucuronidation; percentage of control metabolism, 7-HFC glucuronidation

UGT1A9 = biological target: T2, UGT1A9 (Homo sapiens, UniProt O60656); test: Inhibition of raloxifene glucuronidation by recombinant UGT1A9 Supersomes; conditions: for Inhibition of raloxifene glucuronidation, UGT1A9, first line per inhibitor (G1): first line (G1, metabolite not given); for Inhibition of raloxifene glucuronidation, UGT1A9, first line per inhibitor (G1) / Inhibition of raloxifene glucuronidation, UGT1A9, second line per inhibitor (G2): raloxifene 50 μM, 250 μg/ml Supersomes, 1 mM UDPGA, 15 min; for activity at 15 min, 5 µM / activity at 15 min, 10 µM / activity at 15 min, 25 µM / activity at 15 min, 50 µM: human, Supersomes with recombinant human UGT1A9, pH 7.5, probe raloxifene 50 μM; for Inhibition of raloxifene glucuronidation, UGT1A9, second line per inhibitor (G2): second line (G2, metabolite not given)
T2 sequence (O60656 26-530): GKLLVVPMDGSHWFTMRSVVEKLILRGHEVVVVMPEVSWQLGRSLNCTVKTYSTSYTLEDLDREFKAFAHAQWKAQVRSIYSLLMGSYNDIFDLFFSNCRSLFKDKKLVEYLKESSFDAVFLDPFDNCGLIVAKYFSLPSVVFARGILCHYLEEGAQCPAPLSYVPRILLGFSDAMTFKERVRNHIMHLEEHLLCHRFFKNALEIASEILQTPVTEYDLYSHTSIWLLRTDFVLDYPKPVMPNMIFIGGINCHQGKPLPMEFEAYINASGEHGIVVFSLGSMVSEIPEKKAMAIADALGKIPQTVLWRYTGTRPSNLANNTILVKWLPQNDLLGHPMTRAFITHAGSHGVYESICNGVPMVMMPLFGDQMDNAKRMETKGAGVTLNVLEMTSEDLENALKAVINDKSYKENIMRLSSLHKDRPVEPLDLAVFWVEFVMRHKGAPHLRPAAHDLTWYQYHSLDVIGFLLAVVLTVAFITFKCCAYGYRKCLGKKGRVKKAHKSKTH

[3] = test system: UGT enzymes of human liver microsomes; test: Inhibition of estradiol (E2) glucuronidation in human liver microsomes; type: biochemical; conditions: E2 50 μM, inhibitor 10 μM
Text: (§2) Compounds were eluted using a binary solvent gradient system where solvent A was dilute phosphoric acid (pH 3) and solvent B was 80:20 acetonitrile-methanol. […] Detection was at 280 nm.

UGT1A3 = biological target: T3, UGT1A3 (Homo sapiens, UniProt P35503); test: Inhibition of raloxifene glucuronidation by recombinant UGT1A3 Supersomes; conditions: human; for activity at 15 min, 10 µM: inhibitor 10 μM; for activity at 15 min, 25 µM: inhibitor 25 μM; for activity at 15 min, 50 µM: inhibitor 50 μM
T3 sequence (P35503 29-534): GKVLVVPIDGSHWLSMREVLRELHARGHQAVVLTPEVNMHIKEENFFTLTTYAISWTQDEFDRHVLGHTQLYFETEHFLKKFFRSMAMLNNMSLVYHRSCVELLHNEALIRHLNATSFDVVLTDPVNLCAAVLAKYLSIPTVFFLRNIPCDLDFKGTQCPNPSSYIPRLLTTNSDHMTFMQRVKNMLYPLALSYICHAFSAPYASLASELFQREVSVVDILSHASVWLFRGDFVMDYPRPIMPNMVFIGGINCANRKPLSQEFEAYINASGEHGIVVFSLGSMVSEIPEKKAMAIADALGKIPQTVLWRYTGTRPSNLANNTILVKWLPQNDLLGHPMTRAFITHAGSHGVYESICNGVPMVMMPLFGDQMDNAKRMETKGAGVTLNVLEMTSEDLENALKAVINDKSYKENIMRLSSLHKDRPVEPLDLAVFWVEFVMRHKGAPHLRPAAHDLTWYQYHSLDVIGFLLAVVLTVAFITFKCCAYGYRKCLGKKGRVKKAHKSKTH
Experimental: Compounds were eluted using a binary solvent gradient system. Solvent A was water brought to pH 8 with NH4OH. Solvent B was methanol. Solvent flow rate was 1 ml/min and the column temperature was maintained at 50° C. Detection was at 280 nm. […] The system was then returned to the initial conditions and equilibrated for 3 min.

[4] = test system: UGT enzymes of pooled human jejunum microsomes; test: Inhibition of 2ME2 glucuronidation (MG1) in pooled human jejunum microsomes; type: biochemical; conditions: jejunum HJ61, 2ME2 50 μM
Text: as §2

[5] = test system: UGT enzymes of human liver microsomes; test: Inhibition of raloxifene glucuronidation (G1, G2) in human liver microsomes; type: biochemical
Text: as §1

[6] = test system: UGT enzymes of pooled human jejunum microsomes; test: Inhibition of estradiol (E2) glucuronidation in pooled human jejunum microsomes; type: biochemical; conditions: jejunum HJ61; E2 50 μM; inhibitor 10 μM
Text: as §2

[7] = Supersomes with recombinant human UGT1A3, pH 7.5, probe raloxifene 50 μM, formation of glucuronide G1, % of control metabolism, raloxifene G1, UGT1A3
[8] = Supersomes with recombinant human UGT1A3, pH 7.5, probe raloxifene 50 μM, formation of glucuronide G2, % of control metabolism, raloxifene G2, UGT1A3
[9] = recombinant UGT1A3 Supersomes, pH 7.5, probe raloxifene 50 μM (formation of glucuronide G1), Inhibition of raloxifene glucuronidation, G1, UGT1A3, G1, raloxifene 50 μM, 250 μg/ml Supersomes, 1 mM UDPGA, 15 min
[10] = recombinant UGT1A3 Supersomes, pH 7.5, probe raloxifene 50 μM (formation of glucuronide G2), Inhibition of raloxifene glucuronidation, G2, UGT1A3, G2, raloxifene 50 μM, 250 μg/ml Supersomes, 1 mM UDPGA, 15 min
[11] = liver lot 032101, inhibitor 10 μM
[12] = liver lot 062101, inhibitor 10 μM
[13] = liver lot 083000, inhibitor 10 μM
[14] = raloxifene 50 μM, inhibitor 10 μM
[15] = raloxifene 50 μM, inhibitor 25 μM
[16] = raloxifene 50 μM, inhibitor 50 μM
[17] = raloxifene 50 μM, inhibitor 100 μM

## O=C(OC[C@H]1O[C@@H](OC(=O)c2cc(O)c(O)c(OC(=O)c3cc(O)c(O)c(O)c3)c2)[C@H](OC(=O)c2cc(O)c(O)c(OC(=O)c3cc(O)c(O)c(O)c3)c2)[C@@H](OC(=O)c2cc(O)c(O)c(OC(=O)c3cc(O)c(O)c(O)c3)c2)[C@@H]1OC(=O)c1cc(O)c(O)c(OC(=O)c2cc(O)c(O)c(O)c2)c1)c1cc(O)c(O)c(OC(=O)c2cc(O)c(O)c(O)c2)c1 [Tannic acid]
[1]
  % of control metabolism, raloxifene G1: 39 (7) %
  % of control metabolism, raloxifene G2: 47 (8) %
[2]; 7-HFC 50 μM, 1 mM UDPGA, 15 min
  IC50: 10 µM
[2]; inhibitor 25 μM
  percentage of control metabolism, 7-HFC glucuronidation: 14 (1) % and 18 (0) %
[2]; inhibitor 25 μM, 7-HFC 50 μM, 15 min
  % of control metabolism (SD, n = 3), 7-HFC glucuronidation: 14 (1), % and 18 (0) %
[2]; inhibitor 50 μM
  percentage of control metabolism, 7-HFC glucuronidation: 2 (0) %
[2]; inhibitor 50 μM, 7-HFC 50 μM, 15 min
  % of control metabolism (SD, n = 3), 7-HFC glucuronidation: 2 (0) %
[2]; inhibitor 100 μM
  percentage of control metabolism, 7-HFC glucuronidation: 0 (0) %
[2]; inhibitor 100 μM, 7-HFC 50 μM, 15 min
  % of control metabolism (SD, n = 3), 7-HFC glucuronidation: 0 (0) %
[2]; inhibitor 200 μM
  percentage of control metabolism, 7-HFC glucuronidation: 0 (0) %
[2]; inhibitor 200 μM, 7-HFC 50 μM, 15 min
  % of control metabolism (SD, n = 3), 7-HFC glucuronidation: 0 (0) %
[2]; inhibitor 500 μM
  percentage of control metabolism, 7-HFC glucuronidation: 0 (0) %
[2]; inhibitor 500 μM, 7-HFC 50 μM, 15 min
  % of control metabolism (SD, n = 3), 7-HFC glucuronidation: 0 (0) %
UGT1A9; inhibitor 5 μM
  Inhibition of raloxifene glucuronidation, UGT1A9, first line per inhibitor (G1): 53 (2)
  Inhibition of raloxifene glucuronidation, UGT1A9, second line per inhibitor (G2): 76 (3)
UGT1A9; inhibitor 50 μM
  Inhibition of raloxifene glucuronidation, UGT1A9, first line per inhibitor (G1): 17 (0)
  Inhibition of raloxifene glucuronidation, UGT1A9, second line per inhibitor (G2): 42 (5)
UGT1A9; formation of glucuronide G1, % of control metabolism, raloxifene G1, UGT1A9, inhibitor 5 μM
  activity at 15 min, 5 µM: 53%
UGT1A9; formation of glucuronide G1, % of control metabolism, raloxifene G1, UGT1A9, inhibitor 10 μM
  activity at 15 min, 10 µM: 44%
UGT1A9; formation of glucuronide G1, % of control metabolism, raloxifene G1, UGT1A9, inhibitor 25 μM
  activity at 15 min, 25 µM: 21%
UGT1A9; formation of glucuronide G1, % of control metabolism, raloxifene G1, UGT1A9, inhibitor 50 μM
  activity at 15 min, 50 µM: 17%
UGT1A9; formation of glucuronide G2, % of control metabolism, raloxifene G2, UGT1A9, inhibitor 5 μM
  activity at 15 min, 5 µM: 76%
UGT1A9; formation of glucuronide G2, % of control metabolism, raloxifene G2, UGT1A9, inhibitor 10 μM
  activity at 15 min, 10 µM: 45%
UGT1A9; formation of glucuronide G2, % of control metabolism, raloxifene G2, UGT1A9, inhibitor 25 μM
  activity at 15 min, 25 µM: 19%
UGT1A9; formation of glucuronide G2, % of control metabolism, raloxifene G2, UGT1A9, inhibitor 50 μM
  activity at 15 min, 50 µM: 42%
UGT1A9; inhibitor 10 μM
  Inhibition of raloxifene glucuronidation, UGT1A9, second line per inhibitor (G2): 45 (1)
UGT1A9; inhibitor 25 μM
  Inhibition of raloxifene glucuronidation, UGT1A9, second line per inhibitor (G2): 19 (3)
[3]; liver 032101
  residual metabolism (% of control), E2-3-β-D-glucuronide: 14 (1) %
  residual metabolism (% of control), E2-17-β-D-glucuronide: 75 (3) %
[3]; liver 062101
  residual metabolism (% of control), E2-3-β-D-glucuronide: 26 (4) %
  residual metabolism (% of control), E2-17-β-D-glucuronide: 72 (3) %
UGT1A3; [7]
  activity at 15 min, 10 µM: 48%
  activity at 15 min, 25 µM: 25%
  activity at 15 min, 50 µM: 3%
UGT1A3; [8]
  activity at 15 min, 10 µM: 64%
  activity at 15 min, 25 µM: 38%
  activity at 15 min, 50 µM: 5%
UGT1A3; [9]
  activity at 15 min, 10 µM: 48%
  activity at 15 min, 25 µM: 25%
  activity at 15 min, 50 µM: 3%
UGT1A3; [10]
  activity at 15 min, 10 µM: 64%
  activity at 15 min, 25 µM: 38%
  activity at 15 min, 50 µM: 5%
[4]; inhibitor 2 μM
  residual metabolism (% of control), 2ME2 MG1: 63 (1) %
[4]; inhibitor 5 μM
  residual metabolism (% of control), 2ME2 MG1: 49 (1) %
[4]; inhibitor 10 μM
  residual metabolism (% of control), 2ME2 MG1: 42 (1) %
[4]; inhibitor 25 μM
  residual metabolism (% of control), 2ME2 MG1: 5 (0) %
[4]; inhibitor 50 μM
  residual metabolism (% of control), 2ME2 MG1: <LOQ
[5]; [11]
  % of control metabolism, raloxifene G1: 51 (4) %
  % of control metabolism, raloxifene G2: 59 (3) %
[5]; [12]
  % of control metabolism, raloxifene G1: 61 (4) %
  % of control metabolism, raloxifene G2: 54 (4) %
[5]; [13]
  % of control metabolism, raloxifene G1: 27 (1) %
  % of control metabolism, raloxifene G2: 30 (1) %
[5]; [14]
  % of control metabolism, raloxifene G1: 27 (1) %
  % of control metabolism, raloxifene G2: 30 (1) %
[5]; [15]
  % of control metabolism, raloxifene G1: 7 (1) %
  % of control metabolism, raloxifene G2: 12 (2) %
[5]; [16]
  % of control metabolism, raloxifene G1: 0 (0), 0 (0) %
  % of control metabolism, raloxifene G2: 0 (0), 0 (0) %
[5]; [17]
  % of control metabolism, raloxifene G1: 0 (0), 0 (0) %
  % of control metabolism, raloxifene G2: 0 (0), 0 (0) %
[6]
  residual metabolism (% of control), E2-3-β-D-glucuronide: 18 (1) %
  residual metabolism (% of control), E2-17-β-D-glucuronide: 17 (1) %
